Reference: patent US7452887B2, “Quinoline- and isoquinoline-based compounds exhibiting ATP-utilizing enzyme inhibitory activity, and compositions, and uses thereof” (Amphora Discovery Corporation, priority 2004, dated 2008)

What was measured:
Assay in all cases: HTS ATP-utilizing enzyme assay, off-chip mobility-shift (Caliper HTS 250)
Details in all cases: test compound 10 μM, kinase listed = active (greater than six-sigma from the mean activity of inactive compounds)
MAPKAPK2 = MAPKAPK2 (Homo sapiens, UniProt P49137); type: biochemical
In short: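 Single-point screen of test compound at 10 μM against MAPKAPK2 with peptide substrate in HEPES pH 7.5 buffer (Triton X-100, BSA), 2.5 h at 20-22 °C. Substrate-to-phosphopeptide ratio was read by off-chip microfluidic mobility shift; EDTA and DMSO wells defined 100% and 0% controls, hits by six-sigma limits.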

C-TAK1 = C-TAK1 (Homo sapiens, UniProt P27448); type: biochemical
In short: (§1)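 The ratio of peptide substrate to phosphorylated product, measured by microfluidic mobility shift, gave percent inhibition. Reactions contained enzyme, peptide substrate and compound at 10 μM in HEPES pH 7.5 buffer, ran 2.5 hrs at 20° C. to 22° C., and were quenched with EDTA.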

CDK2/cyclin A = CDK2/cyclin A (Homo sapiens, UniProt P24941); type: biochemical
In short: as §1

CHEK2 = CHEK2 (Homo sapiens, UniProt O96017); type: biochemical
In short: as §1

PRAK = biological target: T1, PRAK (Homo sapiens, UniProt Q8IW41); type: biochemical
T1 sequence (Q8IW41 1-473): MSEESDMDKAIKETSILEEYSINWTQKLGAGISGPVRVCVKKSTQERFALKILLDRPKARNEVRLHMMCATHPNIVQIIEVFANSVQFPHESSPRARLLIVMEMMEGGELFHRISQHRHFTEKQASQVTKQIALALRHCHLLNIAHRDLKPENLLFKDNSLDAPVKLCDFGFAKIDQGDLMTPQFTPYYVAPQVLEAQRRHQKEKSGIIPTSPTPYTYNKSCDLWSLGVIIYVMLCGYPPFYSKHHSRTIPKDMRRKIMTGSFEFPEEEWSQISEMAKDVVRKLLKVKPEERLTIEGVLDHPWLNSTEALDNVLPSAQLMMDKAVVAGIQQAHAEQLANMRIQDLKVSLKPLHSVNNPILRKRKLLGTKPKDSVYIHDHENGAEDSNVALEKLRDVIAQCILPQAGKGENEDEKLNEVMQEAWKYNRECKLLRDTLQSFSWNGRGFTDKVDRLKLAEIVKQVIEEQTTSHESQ
In short: as §1

DYRK2 = biological target: T2, DYRK2 (Homo sapiens, UniProt Q92630); type: biochemical
T2 sequence (Q92630 1-601): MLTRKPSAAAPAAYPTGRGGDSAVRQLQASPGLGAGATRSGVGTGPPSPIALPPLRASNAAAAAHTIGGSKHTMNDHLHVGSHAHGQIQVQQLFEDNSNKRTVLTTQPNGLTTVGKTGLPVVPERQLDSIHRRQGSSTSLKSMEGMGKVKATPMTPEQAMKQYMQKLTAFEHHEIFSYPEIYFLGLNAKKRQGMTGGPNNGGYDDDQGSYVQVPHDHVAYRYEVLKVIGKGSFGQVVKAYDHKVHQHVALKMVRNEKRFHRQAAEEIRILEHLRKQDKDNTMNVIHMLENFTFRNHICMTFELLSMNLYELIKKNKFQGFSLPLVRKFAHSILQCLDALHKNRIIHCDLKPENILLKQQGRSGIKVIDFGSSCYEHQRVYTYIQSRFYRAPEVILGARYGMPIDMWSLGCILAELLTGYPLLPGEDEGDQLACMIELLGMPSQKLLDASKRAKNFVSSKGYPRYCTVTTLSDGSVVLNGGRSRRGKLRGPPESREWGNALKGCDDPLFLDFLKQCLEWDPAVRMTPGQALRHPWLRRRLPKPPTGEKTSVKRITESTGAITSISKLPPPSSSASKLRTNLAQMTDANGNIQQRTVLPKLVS
In short: as §1

NEK2 = biological target: T3, NEK2 (Homo sapiens, UniProt P51955); type: biochemical
T3 sequence (P51955 1-445): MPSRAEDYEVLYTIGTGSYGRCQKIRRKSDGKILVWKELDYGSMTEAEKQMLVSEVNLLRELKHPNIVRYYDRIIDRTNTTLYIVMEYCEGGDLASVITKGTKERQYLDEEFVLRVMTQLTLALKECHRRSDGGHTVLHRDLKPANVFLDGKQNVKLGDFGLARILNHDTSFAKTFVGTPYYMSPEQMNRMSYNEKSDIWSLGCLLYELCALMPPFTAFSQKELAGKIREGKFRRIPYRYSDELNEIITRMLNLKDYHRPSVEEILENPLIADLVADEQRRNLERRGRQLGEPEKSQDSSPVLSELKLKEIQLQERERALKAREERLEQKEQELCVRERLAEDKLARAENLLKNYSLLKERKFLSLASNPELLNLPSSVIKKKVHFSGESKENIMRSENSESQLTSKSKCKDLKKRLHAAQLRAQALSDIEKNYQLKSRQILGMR
In short: as §1

ROCK2 = ROCK2 (Homo sapiens, UniProt O75116); type: biochemical
In short: as §1

GSK3-α = GSK3-α (Homo sapiens, UniProt P49840); type: biochemical
In short: as §1

CK2 = type: biochemical, human
Excerpt: The following procedures describe the reagent and plate preparation for a HTS of an ATP-utilizing enzyme, such as a protein kinase, run in an off-chip mobility-shift assay format. The following provides an HTS protocol for running a protein kinase HTS screen on a Caliper HTS 250 microfluidics system. The following parameters are dependent on the protein kinase used and can be determined by one skilled in the art as part of a typical assay development process. For example, the peptide substrate used can be identified from the current literature, by screening a peptide library of potential protein kinase substrates, or by other applicable means accepted in the field.
The following table provides typical screen assay parameters appropriate for a Caliper HTS 250 microfluidics system.
The reagents and buffers listed in the following table are generally applicable for developing and running an HTS screen on a human protein kinase using the Caliper HTS 250 system.
The following reagents were prepared using the previously described buffers.
A 2× Master Buffer solution was prepared by combining 200 mL of 1 M HEPES, pH 7.5, 2 mL of 10% Triton X-100, 20 mL of 10% BSA, and 778 mL of H2O.
A 2.5× Substrate Buffer solution was prepared by combining 177.408 mL of 2× Master Buffer, 0.887 mL of 1 mM peptide-X, and 176.521 mL of H2O.
A 1.55× Termination Buffer solution was prepared by combining 762.05 mL of 2× Master Buffer, 95.1 mL of 0.5 M EDTA, and 666.94 mL of H2O. […]
Assays to determine the kinase inhibitory activity of compounds of the present disclosure were performed using a Caliper HTS 250 microfluidics device, Greiner U-bottom assay plates, a Multidrop for transfer of reagents, and Biomek FX (AMNCBM03) software. […] The inhibition of the ATP-utilizing enzyme, such as a particular protein kinase, was determined by measuring the ratio of the peptide substrate to phosphorylated product for each well of the assay plate using the Caliper HTS 250 system. […]

GSK-3-β = GSK-3-β (Homo sapiens, UniProt P49841); type: biochemical
In short: as §1

MSK1 = MSK1 (Homo sapiens, UniProt O75582); type: biochemical
In short: as §1

CDK1/cyclin B = CDK1/cyclin B (Homo sapiens, UniProt P06493); type: biochemical
In short: as §1

KIT = KIT (Homo sapiens, UniProt P10721); type: biochemical
In short: as §1

SRC = SRC (Homo sapiens, UniProt P12931); type: biochemical
In short: as §1

SYK = SYK (Homo sapiens, UniProt P43405); type: biochemical
In short: as §1

Sequence of C-TAK1 (P27448 whole entry): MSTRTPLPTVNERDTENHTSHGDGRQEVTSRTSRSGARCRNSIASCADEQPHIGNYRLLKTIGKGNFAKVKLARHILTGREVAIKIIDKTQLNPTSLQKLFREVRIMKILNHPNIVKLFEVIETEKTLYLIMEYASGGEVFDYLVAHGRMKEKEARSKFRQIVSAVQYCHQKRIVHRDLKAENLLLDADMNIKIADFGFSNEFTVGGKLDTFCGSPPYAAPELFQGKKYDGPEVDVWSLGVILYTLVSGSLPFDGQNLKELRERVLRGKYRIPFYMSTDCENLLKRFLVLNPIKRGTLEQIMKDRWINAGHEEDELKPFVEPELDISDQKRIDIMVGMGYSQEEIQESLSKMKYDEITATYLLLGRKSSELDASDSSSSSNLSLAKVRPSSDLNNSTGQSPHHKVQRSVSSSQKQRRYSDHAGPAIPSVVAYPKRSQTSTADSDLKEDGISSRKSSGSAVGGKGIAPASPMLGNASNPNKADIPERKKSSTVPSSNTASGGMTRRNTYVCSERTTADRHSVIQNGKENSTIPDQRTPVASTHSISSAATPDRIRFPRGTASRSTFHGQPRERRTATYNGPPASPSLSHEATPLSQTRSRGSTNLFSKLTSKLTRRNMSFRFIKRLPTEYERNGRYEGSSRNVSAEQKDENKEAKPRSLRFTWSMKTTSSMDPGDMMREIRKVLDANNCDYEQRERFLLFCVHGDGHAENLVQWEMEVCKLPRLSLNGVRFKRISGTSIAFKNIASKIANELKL
Sequence of CHEK2 (O96017 whole entry): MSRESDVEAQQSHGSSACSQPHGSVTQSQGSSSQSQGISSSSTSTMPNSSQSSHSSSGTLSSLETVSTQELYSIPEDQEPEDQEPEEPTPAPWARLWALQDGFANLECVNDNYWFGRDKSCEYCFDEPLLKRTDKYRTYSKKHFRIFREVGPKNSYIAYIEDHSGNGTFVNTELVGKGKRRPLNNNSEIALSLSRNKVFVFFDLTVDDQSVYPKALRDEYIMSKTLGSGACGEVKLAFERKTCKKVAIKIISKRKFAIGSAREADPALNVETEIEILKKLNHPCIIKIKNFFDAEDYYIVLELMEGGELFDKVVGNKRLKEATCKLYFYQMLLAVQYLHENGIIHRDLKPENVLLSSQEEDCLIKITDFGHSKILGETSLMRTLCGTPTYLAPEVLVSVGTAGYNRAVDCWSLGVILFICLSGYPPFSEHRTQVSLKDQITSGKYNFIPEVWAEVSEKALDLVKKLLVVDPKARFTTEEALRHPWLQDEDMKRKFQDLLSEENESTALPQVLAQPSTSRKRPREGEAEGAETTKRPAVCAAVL
Sequence of MAPKAPK2 (P49137 whole entry): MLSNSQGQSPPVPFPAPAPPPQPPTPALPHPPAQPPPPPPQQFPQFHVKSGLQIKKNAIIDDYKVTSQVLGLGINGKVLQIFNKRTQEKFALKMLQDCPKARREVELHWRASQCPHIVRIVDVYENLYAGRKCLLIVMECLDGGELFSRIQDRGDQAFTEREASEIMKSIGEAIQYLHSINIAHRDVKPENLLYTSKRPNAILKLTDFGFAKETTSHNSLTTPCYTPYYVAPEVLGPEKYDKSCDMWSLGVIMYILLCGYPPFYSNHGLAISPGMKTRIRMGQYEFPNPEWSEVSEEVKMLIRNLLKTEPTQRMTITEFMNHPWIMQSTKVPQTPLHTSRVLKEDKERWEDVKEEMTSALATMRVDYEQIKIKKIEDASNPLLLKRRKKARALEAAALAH
Sequence of GSK3-α (P49840 whole entry): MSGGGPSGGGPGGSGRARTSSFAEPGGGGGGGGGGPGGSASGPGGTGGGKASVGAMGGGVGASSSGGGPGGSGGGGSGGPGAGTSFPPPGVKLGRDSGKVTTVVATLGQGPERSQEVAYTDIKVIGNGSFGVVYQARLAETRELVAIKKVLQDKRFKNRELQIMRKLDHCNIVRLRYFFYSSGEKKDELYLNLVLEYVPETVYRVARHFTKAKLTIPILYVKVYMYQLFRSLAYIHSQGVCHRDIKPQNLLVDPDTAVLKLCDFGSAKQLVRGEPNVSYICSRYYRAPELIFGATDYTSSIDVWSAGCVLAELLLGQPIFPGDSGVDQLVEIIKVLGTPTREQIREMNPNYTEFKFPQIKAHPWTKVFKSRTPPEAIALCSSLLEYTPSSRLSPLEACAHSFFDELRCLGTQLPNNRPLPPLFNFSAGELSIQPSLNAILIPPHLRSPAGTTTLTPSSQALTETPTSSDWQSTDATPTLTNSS
Sequence of CDK1/cyclin B (P06493 whole entry): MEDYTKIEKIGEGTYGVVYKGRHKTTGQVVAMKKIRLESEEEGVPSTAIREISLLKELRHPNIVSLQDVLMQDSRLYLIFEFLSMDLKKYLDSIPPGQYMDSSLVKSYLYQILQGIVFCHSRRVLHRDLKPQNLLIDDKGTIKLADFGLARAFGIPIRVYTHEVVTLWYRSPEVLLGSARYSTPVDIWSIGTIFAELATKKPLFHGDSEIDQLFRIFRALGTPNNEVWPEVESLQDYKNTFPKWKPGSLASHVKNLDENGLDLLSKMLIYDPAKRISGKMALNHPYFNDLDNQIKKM
Sequence of CDK1/cyclin B (P14635 whole entry partner): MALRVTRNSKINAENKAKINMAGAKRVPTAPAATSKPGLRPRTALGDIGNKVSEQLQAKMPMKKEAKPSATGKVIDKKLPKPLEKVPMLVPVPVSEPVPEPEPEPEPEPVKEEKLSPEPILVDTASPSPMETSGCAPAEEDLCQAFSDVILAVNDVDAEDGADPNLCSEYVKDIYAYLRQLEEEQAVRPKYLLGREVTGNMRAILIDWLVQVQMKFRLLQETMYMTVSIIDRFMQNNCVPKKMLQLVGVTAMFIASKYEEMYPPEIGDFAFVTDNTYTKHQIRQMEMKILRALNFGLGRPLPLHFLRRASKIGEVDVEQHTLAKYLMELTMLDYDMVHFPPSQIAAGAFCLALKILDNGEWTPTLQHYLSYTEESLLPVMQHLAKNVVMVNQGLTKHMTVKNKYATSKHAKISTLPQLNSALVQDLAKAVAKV
Sequence of GSK-3-β (P49841 whole entry): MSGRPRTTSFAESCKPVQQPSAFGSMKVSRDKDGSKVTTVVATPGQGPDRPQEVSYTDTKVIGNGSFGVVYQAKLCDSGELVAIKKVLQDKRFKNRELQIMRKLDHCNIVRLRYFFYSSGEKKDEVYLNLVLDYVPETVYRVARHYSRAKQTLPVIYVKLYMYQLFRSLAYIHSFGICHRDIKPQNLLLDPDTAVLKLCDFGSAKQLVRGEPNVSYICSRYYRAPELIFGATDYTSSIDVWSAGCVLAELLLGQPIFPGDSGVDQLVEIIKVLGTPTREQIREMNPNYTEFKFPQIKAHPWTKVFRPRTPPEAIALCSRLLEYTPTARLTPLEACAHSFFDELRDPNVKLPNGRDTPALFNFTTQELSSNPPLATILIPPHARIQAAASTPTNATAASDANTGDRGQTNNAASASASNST
Sequence of SRC (P12931 whole entry): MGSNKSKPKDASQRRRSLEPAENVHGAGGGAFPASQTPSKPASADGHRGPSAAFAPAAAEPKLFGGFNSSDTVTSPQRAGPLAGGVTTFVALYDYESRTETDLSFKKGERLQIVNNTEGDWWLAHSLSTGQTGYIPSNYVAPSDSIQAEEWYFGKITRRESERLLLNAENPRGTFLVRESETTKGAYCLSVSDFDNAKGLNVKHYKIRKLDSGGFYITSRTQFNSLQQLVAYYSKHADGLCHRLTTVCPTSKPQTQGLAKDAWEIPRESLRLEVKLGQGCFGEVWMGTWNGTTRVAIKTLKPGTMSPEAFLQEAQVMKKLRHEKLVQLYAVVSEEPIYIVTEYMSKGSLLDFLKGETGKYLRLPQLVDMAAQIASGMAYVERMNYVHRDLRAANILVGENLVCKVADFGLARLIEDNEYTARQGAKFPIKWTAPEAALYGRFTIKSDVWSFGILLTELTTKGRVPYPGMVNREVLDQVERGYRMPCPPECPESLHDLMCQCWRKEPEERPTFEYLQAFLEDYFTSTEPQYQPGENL
Sequence of MSK1 (O75582 whole entry): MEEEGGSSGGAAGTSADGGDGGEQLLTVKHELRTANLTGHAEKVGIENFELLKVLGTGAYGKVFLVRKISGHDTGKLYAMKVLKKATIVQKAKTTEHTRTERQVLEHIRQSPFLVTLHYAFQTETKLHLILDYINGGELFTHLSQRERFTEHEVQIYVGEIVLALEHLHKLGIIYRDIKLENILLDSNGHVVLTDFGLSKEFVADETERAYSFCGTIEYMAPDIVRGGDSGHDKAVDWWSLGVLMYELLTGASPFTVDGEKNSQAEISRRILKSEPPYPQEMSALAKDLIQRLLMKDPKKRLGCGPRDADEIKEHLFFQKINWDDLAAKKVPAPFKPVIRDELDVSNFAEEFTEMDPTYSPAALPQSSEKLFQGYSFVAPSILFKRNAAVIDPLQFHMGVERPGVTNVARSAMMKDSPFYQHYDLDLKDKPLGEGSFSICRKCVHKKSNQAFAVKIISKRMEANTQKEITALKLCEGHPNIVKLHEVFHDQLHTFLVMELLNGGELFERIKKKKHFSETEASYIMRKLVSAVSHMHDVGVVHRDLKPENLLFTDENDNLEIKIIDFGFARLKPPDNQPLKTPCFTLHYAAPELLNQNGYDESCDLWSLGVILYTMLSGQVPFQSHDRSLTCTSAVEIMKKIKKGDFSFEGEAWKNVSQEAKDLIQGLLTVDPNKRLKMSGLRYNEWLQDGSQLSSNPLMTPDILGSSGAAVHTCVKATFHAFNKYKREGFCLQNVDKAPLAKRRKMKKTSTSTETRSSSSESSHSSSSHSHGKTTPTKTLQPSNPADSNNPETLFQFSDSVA

| Activity (MAPKAPK2) | Activity (C-TAK1) | Activity (CDK2/cyclin A) | Activity (CHEK2) | Activity (PRAK) | Activity (NEK2) | SMILES | also measured |
| --- | --- | --- | --- | --- | --- | --- | --- |
| MAPKAPK2 | C-TAK1 | CDK2/cyclin A | CHEK2 | PRAK |  | CN1CCN(c2ccc(Nc3ccnc4ccc(-c5cccc(OCc6ccccc6)c5)cc34)cc2)CC1 [6-(3-(benzyloxy)phenyl)-N-(4-(4-methylpiperazin-1-yl)phenyl)quinolin-4-amine] |  |
| MAPKAPK2 |  |  |  | PRAK | NEK2 | CN1CCN(c2ccc(Nc3ccnc4ccc(-c5ccc(C(N)=O)cc5)cc34)cc2)CC1 [4-(4-(4-(4-methylpiperazin-1-yl)phenylamino)quinolin-6-yl)benzamide] | Activity (DYRK2): DYRK2; Activity (ROCK2): ROCK2 |
| MAPKAPK2 |  | CDK2/cyclin A | CHEK2 | PRAK |  | CN1CCN(c2ccc(Nc3ccnc4ccc(-c5cccs5)cc34)cc2)CC1 [N-(4-(4-methylpiperazin-1-yl)phenyl)-6-(thiophen-2-yl)quinolin-4-amine] | Activity (GSK3-α): GSK3-α |
| MAPKAPK2 |  |  |  | PRAK | NEK2 | CN1CCN(c2ccc(Nc3ccnc4ccc(-c5ccccc5C(F)(F)F)cc34)cc2)CC1 [N-(4-(4-methylpiperazin-1-yl)phenyl)-6-(2-(trifluoromethyl)phenyl)quinolin-4-amine] | Activity (CK2): CK2 |
| MAPKAPK2 |  |  |  | PRAK |  | CN1CCN(c2ccc(Nc3ccnc4ccc(-c5cccc(C(=O)O)c5)cc34)cc2)CC1 [3-(4-(4-(4-methylpiperazin-1-yl)phenylamino)quinolin-6-yl)benzoic acid] | Activity (CK2): CK2 |
| MAPKAPK2 | C-TAK1 | CDK2/cyclin A | CHEK2 | PRAK | NEK2 | CN1CCN(c2ccc(Nc3ccnc4ccc(-c5ccc(Cl)c(Cl)c5)cc34)cc2)CC1 [6-(3,4-dichlorophenyl)-N-(4-(4-methylpiperazin-1-yl)phenyl)quinolin-4-amine] |  |
| MAPKAPK2 |  |  |  |  |  | CN1CCN(c2ccc(Nc3ccnc4ccc(-c5ccoc5)cc34)cc2)CC1 [6-(furan-3-yl)-N-(4-(4-methylpiperazin-1-yl)phenyl)quinolin-4-amine] | Activity (DYRK2): DYRK2; Activity (GSK-3-β): GSK-3-β; Activity (GSK3-α): GSK3-α |
| MAPKAPK2 | C-TAK1 |  |  | PRAK | NEK2 | CN1CCN(c2ccc(Nc3ccnc4ccc(-c5ccc(F)c(Cl)c5)cc34)cc2)CC1 [6-(3-chloro-4-fluorophenyl)-N-(4-(4-methylpiperazin-1-yl)phenyl)quinolin-4-amine] | Activity (MSK1): MSK1 |
|  |  |  |  | PRAK |  | CNC1CCN(c2ccc(Nc3ccnc4ccc(-c5ccc(C#N)cc5)cc34)cc2)C1 (centres unmarked) [4-(4-(4-(3-(methylamino)pyrrolidin-1-yl)phenylamino)quinolin-6-yl)benzonitrile] | Activity (CDK1/cyclin B): CDK1/cyclin B; Activity (KIT): KIT |
| MAPKAPK2 | C-TAK1 |  |  |  |  | CN1CCN(c2ccc(Nc3ccnc4ccc(-c5ccc(OCc6ccccc6)c(F)c5)cc34)cc2)CC1 [6-(4-(benzyloxy)-3-fluorophenyl)-N-(4-(4-methylpiperazin-1-yl)phenyl)quinolin-4-amine] | Activity (SRC): SRC; Activity (SYK): SYK |
